Drawing on the supplement of paper PMC12137928, this text covers IC50 cell viability and efficacy for 30 molecules.

Molecules are shown by their SMILES. Counter-ions that a name gives are not always drawn. A value given as a limit tells only on which side of the number the result lay.

Assay [1] concerns HCT116. The note with it: 72 h. Summed up: (§1)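 HCT116 cells were seeded at 250 per well in 1536-well plates and left 5 h to attach. CellTiter-Glo luminescence was scaled to vehicle (0%) and positive control (-100%), then pattern-corrected. IC50 and maximal efficacy came from four-parameter Hill fits.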
The test system of assay [2] is HCT116. Briefly: efficacy (maximum % inhibition of viability vs DMSO); higher = more cytotoxic. The note with it: 72 h. Summed up:
as §1

Take `Cc1[nH]c(/C=C2\C(=O)Nc3ccc(F)cc32)c(C)c1C(=O)NCCN1CCCC1` [Toceranib]: the IC50 cell viability in assay [1] (ICRF193 0 nM) and in assay [1] (ICRF193 200 nM) was 8.96 µM each time. For the same molecule, the efficacy in assay [2] (ICRF193 0 nM) was 102%; in assay [2] (ICRF193 200 nM) it was 94.9%.
`Cc1ccc(C(=O)c2cc(O)c(O)c([N+](=O)[O-])c2)cc1` [Tolcapone]: the IC50 cell viability in assay [1] (ICRF193 0 nM) is more than 45.8 µM; in assay [1] (ICRF193 200 nM), 29.1 µM. In addition, in assay [2] (ICRF193 200 nM), the efficacy came to 84.9%.
Take `Cc1cc(-n2c(=O)[nH]c(=O)n(C)c2=O)ccc1Oc1ccc(S(=O)(=O)C(F)(F)F)cc1` [Toltrazuril (sulfone)]: the IC50 cell viability in assay [1] (ICRF193 0 nM) was 7.3 µM; in assay [1] (ICRF193 200 nM), more than 45.8 µM. For the same molecule, in assay [2] (ICRF193 0 nM), the efficacy amounted to 44.9%.
Regarding `CC[C@@]1(O)C(=O)OCc2c1cc1n(c2=O)Cc2cc3c(CN(C)C)c(O)ccc3nc2-1` [Topotecan hydrochloride], the values for the IC50 cell viability in assay [1] (ICRF193 0 nM) and in assay [1] (ICRF193 200 nM) were 0.73 µM and 0.206 µM, respectively. For the same molecule, the efficacy was found to be 94.2% in assay [2] (ICRF193 0 nM) and 102% in assay [2] (ICRF193 200 nM).
Turning to `CN(C)CCOc1ccc(/C(=C(/CCCl)c2ccccc2)c2ccccc2)cc1` [Toremifene citrate], the IC50 cell viability was 20.6 µM in assay [1] (ICRF193 0 nM) and 29.1 µM in assay [1] (ICRF193 200 nM). Moreover, the efficacy was determined as 128% in assay [2] (ICRF193 0 nM) and 104% in assay [2] (ICRF193 200 nM).
For `COc1cc2c(cc1O)CCN[C@]21CS[C@@H]2c3c(OC(C)=O)c(C)c4c(c3[C@H](COC1=O)N1[C@@H]2[C@H]2c3c(cc(C)c(OC)c3O)C[C@@H]([C@@H]1O)N2C)OCO4` [Trabectedin] the same measures were 0.0119 µM, 0.00473 µM, 57.2% and 74.4%.
With `CC(=O)Nc1cccc(-n2c(=O)n(C3CC3)c(=O)c3c(Nc4ccc(I)cc4F)n(C)c(=O)c(C)c32)c1` [Trametinib], the figures for the IC50 cell viability in assay [1] (ICRF193 0 nM) and in assay [1] (ICRF193 200 nM) were 0.259 µM and 0.0206 µM, respectively. Moreover, the efficacy in assay [2] (ICRF193 0 nM) was 92.3%; in assay [2] (ICRF193 200 nM), 82.8%.
The corresponding values for `CC(C)OC(=O)CCC/C=C\C[C@@H]1[C@@H](/C=C/[C@@H](O)COc2cccc(C(F)(F)F)c2)[C@H](O)C[C@@H]1O` [Travoprost] are 14.6 µM, 20.6 µM, 87.4% and 96.5%.
For `Nc1nc(N)c2nc(-c3ccccc3)c(N)nc2n1` [Triamterene] the same measures were 29.1 µM, 29.1 µM, 95.4% and 92.7%.
Regarding `CCOC1O[C@H]([C@@H](COCc2ccccc2)OCc2ccccc2)[C@H](OCc2ccccc2)[C@H]1O` (stereo partly drawn) [Tribenoside], the IC50 cell viability was 29.1 µM in assay [1] (ICRF193 0 nM) and 18.3 µM in assay [1] (ICRF193 200 nM). Besides, the efficacy in assay [2] (ICRF193 0 nM) was found to be 106%; in assay [2] (ICRF193 200 nM), 92.1%.
For `O=C(Nc1ccc(Cl)cc1)Nc1ccc(Cl)c(Cl)c1` [Triclocarban] the same measures were 18.3 µM, 13 µM, 102% and 104%.
The corresponding values for `Oc1cc(Cl)ccc1Oc1ccc(Cl)cc1Cl` [Triclosan] are 16.4 µM, 18.3 µM, 92.5% and 95.2%.
For `CC(CN(C)C)CN1c2ccccc2Sc2ccc(C(F)(F)F)cc21` (stereo not drawn) [Trifluomeprazine 2-butenedioate] the same measures were 16.4 µM, 18.3 µM, 40.2% and 49.5%.
With `O=c1[nH]c(=O)n([C@H]2C[C@H](O)[C@@H](CO)O2)cc1C(F)(F)F` [Trifluridine], the IC50 cell viability came out at 29.1 µM in assay [1] (ICRF193 0 nM) and 8.2 µM in assay [1] (ICRF193 200 nM). In addition, the efficacy in assay [2] (ICRF193 0 nM) was determined as 49.1%; in assay [2] (ICRF193 200 nM), 59%.
For `COc1cc(NCc2ccc3nc(N)nc(N)c3c2C)cc(OC)c1OC` [Trimetrexate] the same measures were 1.16 µM, 0.92 µM, 102% and 90.7%.
In the case of `N[C@@H]1[C@H]2CN(c3nc4c(cc3F)c(=O)c(C(=O)O)cn4-c3ccc(F)cc3F)C[C@@H]12` [Trovafloxacin mesylate], the values for the IC50 cell viability in assay [1] (ICRF193 0 nM) and in assay [1] (ICRF193 200 nM) were 29.1 µM and 20.6 µM, respectively. In addition, the efficacy amounted to 52.4% in assay [2] (ICRF193 0 nM) and 65.3% in assay [2] (ICRF193 200 nM).
For the molecule `CC[C@H]1OC(=O)C[C@@H](OC(C)=O)[C@H](C)[C@@H](O[C@@H]2O[C@H](C)[C@@H](O[C@H]3C[C@@](C)(O)[C@@H](OC(=O)CC(C)C)[C@H](C)O3)[C@H](N(C)C)[C@H]2O)[C@@H](CC=O)C[C@@H](C)C(=O)/C=C/C(C)=C/[C@@H]1CO[C@@H]1O[C@H](C)[C@@H](O)[C@@H](OC)[C@H]1OC` [Tylvalosin], the IC50 cell viability was more than 45.8 µM in assay [1] (ICRF193 0 nM) and 18.3 µM in assay [1] (ICRF193 200 nM). The molecule further registered an efficacy in assay [2] (ICRF193 200 nM) of 53.7%.
The corresponding values for `CCCCCCCC(=O)CC[C@@H]1[C@@H](C/C=C\CCCC(=O)OC(C)C)[C@@H](O)C[C@H]1O` [Unoprostone isopropyl ester] are more than 45.8 µM, 18.3 µM and 42.2%.
The corresponding values for `CCCCC(=O)O` [Valeric acid] are more than 45.8 µM, 29.1 µM and 62%.
`CCCCC(=O)OCC(=O)[C@]1(O)Cc2c(O)c3c(c(O)c2[C@@H](O[C@H]2C[C@H](NC(=O)C(F)(F)F)[C@H](O)[C@H](C)O2)C1)C(=O)c1c(OC)cccc1C3=O` [Valrubicin]: the IC50 cell viability is 3.66 µM in assay [1] (ICRF193 0 nM) and 2.31 µM in assay [1] (ICRF193 200 nM). In addition, the efficacy in assay [2] (ICRF193 0 nM) was 90.1%; in assay [2] (ICRF193 200 nM) it was 97.8%.
As to `c1cnc2cc3c(cc2n1)[C@@H]1CNC[C@H]3C1` [Varenicline tartrate], the IC50 cell viability in assay [1] (ICRF193 0 nM) was more than 45.8 µM; in assay [1] (ICRF193 200 nM), 29.1 µM. This molecule had an efficacy in assay [2] (ICRF193 200 nM) of 80.4%.
Take `CC[C@]1(O)C[C@@H]2CN(CCc3c([nH]c4ccccc34)[C@@](C(=O)OC)(c3cc4c(cc3OC)N(C)[C@H]3[C@@](O)(C(=O)OC)[C@H](OC(C)=O)[C@]5(CC)C=CCN6CC[C@]43[C@@H]65)C2)C1` [Vinblastine sulfate]: the IC50 cell viability in assay [1] (ICRF193 0 nM) turned out to be 0.082 µM; in assay [1] (ICRF193 200 nM), 0.058 µM. Moreover, the efficacy came out at 75.8% in assay [2] (ICRF193 0 nM) and 82.2% in assay [2] (ICRF193 200 nM).
For the molecule `CC[C@]1(O)C[C@H]2CN(CCc3c([nH]c4ccccc34)[C@@](C(=O)OC)(c3cc4c(cc3OC)N(C=O)[C@H]3[C@@](O)(C(=O)OC)[C@H](OC(C)=O)[C@]5(CC)C=CCN6CC[C@]43[C@@H]65)C2)C1` [Vincristine], the IC50 cell viability in assay [1] (ICRF193 0 nM) is 0.164 µM; in assay [1] (ICRF193 200 nM), 0.183 µM. In addition, the efficacy in assay [2] (ICRF193 0 nM) came to 70.2%; in assay [2] (ICRF193 200 nM) it was 63.5%.
For `CC[C@]1(O)C[C@@H]2CN(CCc3c([nH]c4ccccc34)[C@@](C(=O)OC)(c3cc4c(cc3OC)N(C)[C@H]3[C@@](O)(C(N)=O)[C@H](O)[C@]5(CC)C=CCN6CC[C@]43[C@@H]65)C2)C1` [Vindesine sulfate salt] the same measures were 0.058 µM, 0.058 µM, 75.5% and 69.2%.
On to `CC[C@]12C=CCN3CC[C@@]4(c5cc([C@@]6(C(=O)OC)C[C@@H]7C[C@@H](C(C)(F)F)CN(Cc8c6[nH]c6ccccc86)C7)c(OC)cc5N(C)[C@H]4[C@@](O)(C(=O)OC)[C@@H]1OC(C)=O)[C@@H]32` [Vinflunine (Tartrate)], for which the results for the IC50 cell viability in assay [1] (ICRF193 0 nM) and in assay [1] (ICRF193 200 nM) were 0.73 µM and more than 45.8 µM, respectively. This molecule yielded an efficacy in assay [2] (ICRF193 0 nM) of 60.1%.
Consider `CCC1=C[C@@H]2CN(C1)Cc1c([nH]c3ccccc13)[C@@](C(=O)OC)(c1cc3c(cc1OC)N(C)[C@H]1[C@@](O)(C(=O)OC)[C@H](OC(C)=O)[C@]4(CC)C=CCN5CC[C@]31[C@@H]54)C2` [Vinorelbine tartrate], for which the IC50 cell viability came out at 0.0651 µM in assay [1] (ICRF193 0 nM) and 0.058 µM in assay [1] (ICRF193 200 nM). Further, the results for the efficacy in assay [2] (ICRF193 0 nM) and in assay [2] (ICRF193 200 nM) were 64.9% and 72.3%, respectively.
For `O=C(CCCCCCC(=O)Nc1ccccc1)NO` [Vorinostat (SAHA)] the same measures were 3.66 µM, 2.31 µM, 109% and 101%.
For `[O-][n+]1ccccc1[S-].[O-][n+]1ccccc1[S-].[Zn+2]` [Zinc pyrithione] the same measures were 4.61 µM, 2.06 µM, 107% and 102%.
For `O[C@@H](COc1cccc2ncccc12)CN1CCN([C@@H]2c3ccccc3[C@@H]3[C@H](c4ccccc42)C3(F)F)CC1` [Zosuquidar trihydrochloride] the same measures were 23.1 µM, 20.6 µM, 141% and 105%.
With `OCCN1CCN(CC/C=C2/c3ccccc3Sc3ccc(C(F)(F)F)cc32)CC1` [cis-Flupentixol], the IC50 cell viability in assay [1] (ICRF193 0 nM) is 25.9 µM; in assay [1] (ICRF193 200 nM) it was 16.4 µM. Further, the efficacy in assay [2] (ICRF193 0 nM) was 119%; in assay [2] (ICRF193 200 nM), 102%.
